According to publication PMC3640040, “Partial Agonism of Taurine at Gamma-Containing Native and Recombinant GABAA Receptors” (PLoS ONE, 2013):

Experiments:
[1] = target: T1, α2β1γ2 (δ74–79) (Mus musculus; Rattus norvegicus, UniProt P15431+P26048); test: two-electrode voltage clamp, Xenopus oocytes; type: cell-based; conditions: read-out: Taurine / EC50
T1 construct: gene Gabra2; mouse alpha2 + rat beta1 + mouse gamma2L with IDIFFA (74-79) replaced by delta motif MTVFLH; printed primers also encode T81S and Y83R, text names 74-79 only; Xenopus oocytes; with Gamma-aminobutyric acid receptor subunit gamma-2
From the text: two-electrode voltage clamp, Xenopus oocytes on α2β1γ2 (δ74–79)

[2] = target: T2, α2β1γ2 (Rattus norvegicus; Mus musculus, UniProt P15431+P26048); test: two-electrode voltage clamp, Xenopus oocytes; type: cell-based; conditions: read-out: Taurine / EC50
T2 construct: gene Gabra2; ternary GABA-A receptor, mouse alpha2 + rat beta1 + mouse gamma2L; Xenopus oocytes, cRNA ratio 10:1:10; with Gamma-aminobutyric acid receptor subunit gamma-2

[3] = target: T3, α2β3γ2 (Mus musculus; Homo sapiens, UniProt P22723+P26048+P28472); test: two-electrode voltage clamp, Xenopus oocytes; type: cell-based; conditions: read-out: Taurine / EC50
T3 construct: gene Gabra2; ternary GABA-A receptor, mouse alpha2 + human beta3 + mouse gamma2L; Xenopus oocytes, cRNA ratio 10:1:10; agonist site alpha/beta, zolpidem site alpha/gamma

[4] = target: T4, α2β1δ (Rattus norvegicus; Mus musculus; Homo sapiens, UniProt P15431+P26048); test: two-electrode voltage clamp, Xenopus oocytes; type: cell-based; conditions: read-out: Taurine / EC50
T4 construct: gene Gabra2; ternary GABA-A receptor, mouse alpha2 + rat beta1 + human delta; Xenopus oocytes, cRNA ratio 10:1:10; with Gamma-aminobutyric acid receptor subunit delta

[5] = target: T5, α2β1 (Mus musculus; Rattus norvegicus, UniProt P15431+P26048); test: two-electrode voltage clamp, Xenopus oocytes; type: cell-based; conditions: read-out: Taurine / EC50
T5 construct: gene Gabra2; binary GABA-A receptor, mouse alpha2 + rat beta1; Xenopus oocytes
From the text: two-electrode voltage clamp, Xenopus oocytes on α2β1

[6] = target: T6, α2β3 (Mus musculus; Homo sapiens, UniProt P26048+P28472); test: two-electrode voltage clamp, Xenopus oocytes; type: cell-based; conditions: read-out: Taurine / EC50
T6 construct: gene Gabra2; binary GABA-A receptor, mouse alpha2 + human beta3; Xenopus oocytes
T6 sequence (P26048 29-451): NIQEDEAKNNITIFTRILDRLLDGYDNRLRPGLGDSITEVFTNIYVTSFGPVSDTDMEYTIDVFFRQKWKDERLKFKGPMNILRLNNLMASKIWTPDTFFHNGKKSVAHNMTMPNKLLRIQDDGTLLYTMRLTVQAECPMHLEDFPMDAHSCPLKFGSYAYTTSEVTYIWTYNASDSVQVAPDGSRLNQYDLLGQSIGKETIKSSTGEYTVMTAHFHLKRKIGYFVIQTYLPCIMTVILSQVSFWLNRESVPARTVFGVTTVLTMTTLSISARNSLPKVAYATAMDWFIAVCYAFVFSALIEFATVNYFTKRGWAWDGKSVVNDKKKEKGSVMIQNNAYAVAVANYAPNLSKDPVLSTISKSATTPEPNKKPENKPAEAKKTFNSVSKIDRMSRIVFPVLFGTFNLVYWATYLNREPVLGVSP
T6 sequence (P28472 26-473): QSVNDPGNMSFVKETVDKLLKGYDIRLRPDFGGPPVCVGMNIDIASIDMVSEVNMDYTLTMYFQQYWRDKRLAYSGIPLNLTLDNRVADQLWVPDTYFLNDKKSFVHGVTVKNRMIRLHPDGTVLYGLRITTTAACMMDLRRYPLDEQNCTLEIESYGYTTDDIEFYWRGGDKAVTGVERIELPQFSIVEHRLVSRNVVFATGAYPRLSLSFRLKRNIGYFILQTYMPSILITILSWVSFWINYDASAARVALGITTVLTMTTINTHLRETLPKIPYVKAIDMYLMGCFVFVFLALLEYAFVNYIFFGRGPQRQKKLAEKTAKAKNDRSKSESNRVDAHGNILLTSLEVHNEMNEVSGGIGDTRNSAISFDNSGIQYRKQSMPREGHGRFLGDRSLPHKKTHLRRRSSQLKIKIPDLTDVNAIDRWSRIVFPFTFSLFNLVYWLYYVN

[7] = target: T7, α2β3δ (Mus musculus; Homo sapiens, UniProt P26048+P28472); test: two-electrode voltage clamp, Xenopus oocytes; type: cell-based; conditions: read-out: Taurine / EC50
T7 construct: gene Gabra2; ternary GABA-A receptor, mouse alpha2 + human beta3 + human delta; Xenopus oocytes, cRNA ratio 10:1:10; with Gamma-aminobutyric acid receptor subunit delta
T7 sequence (P26048 29-451): T6 sequence (P26048 29-451)
T7 sequence (P28472 26-473): T6 sequence (P28472 26-473)
T7 sequence (O14764 25-452 partner): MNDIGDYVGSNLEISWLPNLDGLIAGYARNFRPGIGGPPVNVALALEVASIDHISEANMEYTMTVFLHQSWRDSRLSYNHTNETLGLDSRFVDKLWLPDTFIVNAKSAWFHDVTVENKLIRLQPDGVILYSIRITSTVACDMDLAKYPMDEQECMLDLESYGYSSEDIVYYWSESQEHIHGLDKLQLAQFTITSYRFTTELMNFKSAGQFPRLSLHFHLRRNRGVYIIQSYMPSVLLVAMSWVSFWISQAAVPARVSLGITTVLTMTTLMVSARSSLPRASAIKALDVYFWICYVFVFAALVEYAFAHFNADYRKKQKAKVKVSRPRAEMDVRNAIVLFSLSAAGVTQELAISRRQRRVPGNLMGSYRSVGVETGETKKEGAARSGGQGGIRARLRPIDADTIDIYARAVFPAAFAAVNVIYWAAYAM

[8] = target: T8, α2β3γ2 (δ74–79) (Mus musculus; Homo sapiens, UniProt P22723+P26048+P28472, P22723:A117H/P22723:D113T/P22723:F116L/P22723:I112M/P22723:I114V/P22723:T119S/P22723:Y121R); test: cell-based; conditions: read-out: % of control GABA current at 1 μM
T8 construct: gene Gabra2
T8 sequence (P26048 29-451): T6 sequence (P26048 29-451)
T8 sequence (P28472 26-473): T6 sequence (P28472 26-473)
T8 sequence (P22723 39-474 I112M/D113T/I114V/F116L/A117H/T119S/Y121R): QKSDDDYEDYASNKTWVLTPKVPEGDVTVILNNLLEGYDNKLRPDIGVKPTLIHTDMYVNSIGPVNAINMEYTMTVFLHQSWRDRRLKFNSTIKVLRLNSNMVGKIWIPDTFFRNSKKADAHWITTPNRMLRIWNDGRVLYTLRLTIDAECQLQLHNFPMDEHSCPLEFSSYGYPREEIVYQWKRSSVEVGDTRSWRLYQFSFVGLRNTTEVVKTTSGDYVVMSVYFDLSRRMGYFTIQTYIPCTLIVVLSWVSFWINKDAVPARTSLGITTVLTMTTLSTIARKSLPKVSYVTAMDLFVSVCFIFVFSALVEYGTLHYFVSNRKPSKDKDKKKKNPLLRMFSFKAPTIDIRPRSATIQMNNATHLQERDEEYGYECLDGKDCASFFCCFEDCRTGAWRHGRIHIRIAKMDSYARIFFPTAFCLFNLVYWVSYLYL

T1 sequence (P15431 26-474, one chain of several): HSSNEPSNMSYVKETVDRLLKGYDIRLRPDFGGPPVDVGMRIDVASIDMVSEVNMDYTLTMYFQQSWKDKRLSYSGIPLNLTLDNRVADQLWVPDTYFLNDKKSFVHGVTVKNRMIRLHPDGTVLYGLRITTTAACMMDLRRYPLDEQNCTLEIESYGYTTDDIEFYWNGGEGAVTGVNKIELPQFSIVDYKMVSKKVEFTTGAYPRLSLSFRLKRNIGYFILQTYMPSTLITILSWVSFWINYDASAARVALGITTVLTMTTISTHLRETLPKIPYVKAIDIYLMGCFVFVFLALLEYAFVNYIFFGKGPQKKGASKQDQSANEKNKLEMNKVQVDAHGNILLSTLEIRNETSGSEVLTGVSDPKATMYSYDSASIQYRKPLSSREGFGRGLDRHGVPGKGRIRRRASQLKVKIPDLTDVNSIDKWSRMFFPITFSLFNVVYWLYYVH
T4 sequence (P15431 26-474, one chain of several): as above
T3 sequence (P22723 39-474, one chain of several): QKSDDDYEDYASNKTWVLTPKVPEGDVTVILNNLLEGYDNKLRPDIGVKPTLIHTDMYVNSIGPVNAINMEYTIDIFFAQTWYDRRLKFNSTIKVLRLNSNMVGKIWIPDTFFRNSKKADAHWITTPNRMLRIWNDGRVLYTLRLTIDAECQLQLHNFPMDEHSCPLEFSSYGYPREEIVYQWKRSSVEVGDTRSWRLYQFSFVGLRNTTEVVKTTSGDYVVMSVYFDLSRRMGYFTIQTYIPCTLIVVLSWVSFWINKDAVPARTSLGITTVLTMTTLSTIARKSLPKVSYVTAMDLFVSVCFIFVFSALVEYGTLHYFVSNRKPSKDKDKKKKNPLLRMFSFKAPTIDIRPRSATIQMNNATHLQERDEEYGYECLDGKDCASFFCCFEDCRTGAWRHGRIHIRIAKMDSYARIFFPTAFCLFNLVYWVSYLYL
T5 sequence (P15431 26-474, one chain of several): as the sequence (P15431 26-474, one chain of several) above
T2 sequence (P26048 29-451 F77I): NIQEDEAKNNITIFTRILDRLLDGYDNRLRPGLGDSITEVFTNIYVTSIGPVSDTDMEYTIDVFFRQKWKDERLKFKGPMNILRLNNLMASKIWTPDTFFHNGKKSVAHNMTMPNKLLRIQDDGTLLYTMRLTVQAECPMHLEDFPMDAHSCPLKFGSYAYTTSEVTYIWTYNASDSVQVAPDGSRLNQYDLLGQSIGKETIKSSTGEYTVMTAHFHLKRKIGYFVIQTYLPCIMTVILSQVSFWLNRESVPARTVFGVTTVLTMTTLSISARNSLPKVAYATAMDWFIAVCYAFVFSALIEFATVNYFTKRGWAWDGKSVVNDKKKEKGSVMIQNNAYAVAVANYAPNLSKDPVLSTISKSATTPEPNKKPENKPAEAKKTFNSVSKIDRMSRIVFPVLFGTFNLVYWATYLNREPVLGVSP
T2 sequence (P15431 26-474): as the sequence (P15431 26-474, one chain of several) above
T2 sequence (P22723 39-474 partner): as the sequence (P22723 39-474, one chain of several) above

Row | SMILES | EC50 [1] | EC50 [2] | EC50 [3] | EC50 [4] | EC50 [5] | EC50 [6] | EC50 [7] | remaining activity at 1 µM [8]
1 | NCCS(=O)(=O)O [taurine, 2-aminoethane sulfonic acid] | 40.5 ± 6.9 mM | 76.1 ± 3.9 mM | 51.2 ± 19.8 mM | 67.8 ± 15.9 mM | 81.8 ± 24.9 mM | 24.5 ± 11.2 mM | 35.4 ± 2 mM | 
2 | Cc1ccc(-c2nc3ccc(C)cn3c2CC(=O)N(C)C)cc1 [zolpidem] |  |  |  |  |  |  |  | 97 ± 7%
